Assay results reported in patent publication US20260217732A1, “WRN INHIBITOR” (SUZHOU PUHE BIOPHARMA CO., LTD., priority 2022, published 2026).

Assays:
[1] = tested on: SW48 (MSI-H) colorectal cancer tumor cells; experiment: In vivo efficacy, SW48 xenograft in nude mice; parameters: species or system BALB/c nude mice; details: QD, oral; for TGI: 21 days; for Tumor Volume D 1: day 1; for Tumor volume D 21: day 21
Protocol: In vivo efficacy experiment in BALB/C nude mice. Details are as follows:
SW48 (MSI-H) colorectal cancer tumor cells were cultured (in an L15 medium with 10% fetal bovine serum), and inoculated into 6-8 week old female BALB/c nude mice (with body weight of about 20 g). All the mice were inoculated subcutaneously. The mice were raised in an SPF-grade experimental environment, and all the mice were free to take commercially certified standard diets. When the tumors grew to an average volume of about 160 mm^3 in mice, the test compound was orally administered daily. […] The tumor volume was measured with a two-dimensional caliper three times a week, and the animals were weighed every day. […] The volume calculation formula is: V=1/2a*b^2, where a represents the long diameter of the tumor and b represents the short diameter of the tumor.

in vivo = details: female, CD1, mouse
Protocol: (§1) Mouse Pharmacokinetic Evaluation Experiment
(§2) CD1 female mice were used as test animals to be administered orally/intravenously (with oral dosage of 10 mg/kg or intravenous dosage of 2 mg/kg).
(§3) Experimental scheme: The oral administration group comprised 3 mice per group (Solvent: 10% Hβ-CD-pH7.4), and the intravenous group comprised 3 mice per group. […] The blood concentration in the plasma of mice was determined using the LC/MS/MS method after the oral or intravenous administration, respectively, and the collected data were calculated using the AB Sciex QTRAP 6500 software.

[2] = female, CD1, mouse, in vivo
Protocol: as §1, §2, §3

[3] = tested on: HT-29 colorectal cancer cells; experiment: 2D antiproliferation on MSS HT-29 cells, CTG, 5 days; assay type: cell-based; details: Homo sapiens, 120 h, HT-29 MSS
In short: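 HT-29 (MSS) colorectal cells in McCoy's 5A with 10% FBS were exposed to a range of compound concentrations for 5 days at 37° C, 5% CO2. Viability was read as CellTiter-Glo luminescence after 30 min, which reflects ATP content.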

WRN enzyme = target: T1, WRN enzyme (Homo sapiens, UniProt Q14191); experiment: WRN helicase hydrolysis (unwinding) of double-stranded DNA, fluorescence assay; assay type: biochemical; details: 30 min pre-incubation, 60 min reaction
T1 construct: 10 μL (2×) of WRN enzyme solution was added
Protocol: • The molecules of the present disclosure were tested for their activities on the WRN helicase hydrolysis of double-stranded DNA (Table 1).
A working solution to be tested and a buffer were prepared. The compound to be tested was dissolved in DMSO and subjected to 4× dilution (with 10 μM final concentration as the starting concentration). 0.2 μL of the solution of the compound to be tested was added to the 384-well plate and 10 μL (2×) of WRN enzyme solution was added. The solution was incubated in the dark for 30 minutes. Then, 10 μL of a substrate detection solution containing double-stranded DNA was added to initiate the reaction (the DNA has a length of 19 bp, and labeled with TAMRA and BHQ2 at 3′ and 5′-ends, respectively). The solution was incubated at room temperature for 60 minutes. The inhibitory activities (IC50) against WRN enzyme were calculated based on the change of Ex530/Em590 in the blank group (DMSO) and the compound group.

[4] = tested on: SW48 colorectal cancer cells; experiment: 2D antiproliferation on MSI-H SW48 cells, CTG, 5 days; assay type: cell-based; details: Homo sapiens, 120 h; SW48 MSI-H, 5 days
In short: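 MSI-H SW48 colorectal cells in RPMI1640 with 10% FBS exposed to graded compound concentrations for 5 days at 37 °C, 5% CO2. Viability read as CellTiter-Glo ATP luminescence after 30 min.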

[5] = Caco-2 membrane permeability assay; assay type: in vitro ADME; details: human
Protocol: Membrane Permeability Evaluation Experiments: Caco-2 Assays
The molecules of the present disclosure were evaluated for their membrane permeability. […] Data would be used for apparent permeability (Papp).
wherein VA is the volume of the receptor pore (unit: mL), Area is the surface area of the membrane (0.143 cm^2 for Transwell-96 well permeable scaffolds), and time is the total transport time (unit: seconds).

[6] = Caco-2, apical pH 6.5, basolateral pH 7.4

T1 sequence (Q14191 whole entry): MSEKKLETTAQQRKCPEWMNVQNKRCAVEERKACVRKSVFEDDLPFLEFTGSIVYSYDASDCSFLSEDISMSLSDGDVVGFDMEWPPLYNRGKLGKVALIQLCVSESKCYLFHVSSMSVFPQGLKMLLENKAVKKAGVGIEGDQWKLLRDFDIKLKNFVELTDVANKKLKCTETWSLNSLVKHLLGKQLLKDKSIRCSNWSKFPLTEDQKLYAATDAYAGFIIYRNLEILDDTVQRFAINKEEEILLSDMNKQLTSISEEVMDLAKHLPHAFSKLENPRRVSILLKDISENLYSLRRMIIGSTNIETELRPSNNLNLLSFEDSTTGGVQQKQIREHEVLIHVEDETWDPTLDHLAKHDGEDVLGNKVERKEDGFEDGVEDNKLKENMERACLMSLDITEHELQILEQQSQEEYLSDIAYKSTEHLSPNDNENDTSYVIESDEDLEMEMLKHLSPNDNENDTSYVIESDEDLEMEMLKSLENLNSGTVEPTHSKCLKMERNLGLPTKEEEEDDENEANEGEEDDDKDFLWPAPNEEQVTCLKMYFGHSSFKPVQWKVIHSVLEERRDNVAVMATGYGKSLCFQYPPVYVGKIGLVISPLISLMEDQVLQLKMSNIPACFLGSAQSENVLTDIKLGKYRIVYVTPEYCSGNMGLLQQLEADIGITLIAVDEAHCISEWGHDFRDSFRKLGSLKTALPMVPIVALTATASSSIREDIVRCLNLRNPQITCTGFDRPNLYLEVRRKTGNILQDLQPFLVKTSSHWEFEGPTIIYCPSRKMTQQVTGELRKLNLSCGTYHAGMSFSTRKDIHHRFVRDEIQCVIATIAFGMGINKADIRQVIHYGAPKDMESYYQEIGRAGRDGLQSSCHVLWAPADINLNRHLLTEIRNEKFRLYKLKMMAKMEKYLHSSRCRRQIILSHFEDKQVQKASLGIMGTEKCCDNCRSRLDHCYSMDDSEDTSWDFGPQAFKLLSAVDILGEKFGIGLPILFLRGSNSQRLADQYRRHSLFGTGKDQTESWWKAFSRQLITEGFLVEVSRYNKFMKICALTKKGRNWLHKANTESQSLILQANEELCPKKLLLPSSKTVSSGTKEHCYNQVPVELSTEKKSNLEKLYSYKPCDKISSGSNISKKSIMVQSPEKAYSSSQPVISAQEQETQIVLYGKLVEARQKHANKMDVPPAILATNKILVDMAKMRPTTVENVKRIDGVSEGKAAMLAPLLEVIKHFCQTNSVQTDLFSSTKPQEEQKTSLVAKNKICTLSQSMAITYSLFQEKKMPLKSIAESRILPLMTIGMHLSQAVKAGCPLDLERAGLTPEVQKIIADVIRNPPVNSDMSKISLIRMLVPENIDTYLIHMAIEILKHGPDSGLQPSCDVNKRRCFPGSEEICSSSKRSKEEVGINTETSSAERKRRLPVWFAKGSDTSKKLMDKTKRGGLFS

Compound | AUC(0-t) (in vivo; iv, 2 mg/kg) [ng·h/mL] | C0 (in vivo; iv, 2 mg/kg) [ng/mL] | clearance (in vivo; iv, 2 mg/kg) [mL/min/kg] | half-life (in vivo; iv, 2 mg/kg) [h] | AUC(0-t) (in vivo; po, 10 mg/kg) [ng·h/mL] | Cmax (in vivo; po, 10 mg/kg) [ng/mL] | Tmax (in vivo; po, 10 mg/kg) [h] | half-life (in vivo; po, 10 mg/kg) [h] | F [2] [%] | IC50 [4] [nM] | other results
CCc1c(N2CCN(C(=O)c3ncccc3O)CC2)c(=O)n2nc(-c3cccnc3)nc2n1CC(=O)Nc1ccc(C(F)(F)F)cc1C [A1, reference compound] | 1190 | 2520 | 28.1 | 1.3 | 801 | 584 | 0.5 | 1.4 | 14 |  | TGI ([1]; 20 mg/kg): 16%; Tumor Volume D 1 ([1]; 20 mg/kg): 162 mm^3; Tumor volume D 21 ([1]; 20 mg/kg): 1672 mm^3; TGI ([1]; 50 mg/kg): 50%; Tumor Volume D 1 ([1]; 50 mg/kg): 160 mm^3; Tumor volume D 21 ([1]; 50 mg/kg): 1065 mm^3
CCc1c(N2CCN(C(=O)c3ncnc(C)c3O)CC2)c(=O)n2nc(-c3cc4c(s3)COC4)nc2n1CC(=O)Nc1ccc(Br)c2ccoc12 [P59] | 2970 | 5260 | 11.2 | 0.9 | 6070 | 2850 | 0.25 | 1.3 | 41 | 39 | IC50 [3]: > 10000 nM; IC50 (WRN enzyme): 1.5 nM
CCc1c(N2CCN(C(=O)c3ncnc(C)c3O)CC2)c(=O)n2nc(-c3cc4c(s3)COC4)nc2n1CC(=O)Nc1ccc(C(F)(F)F)c(C)c1C [P62] |  |  |  |  |  |  |  |  |  | 37 | efflux ratio ([5]; Caco-2): 11.6; Papp A→B [5, 6]: 1.54 ×10⁻⁶ cm/s; Papp B→A [5, 6]: 17.9 ×10⁻⁶ cm/s
